Source: ChEMBL document CHEMBL1201862, “PubChem BioAssay data set” (2004)
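Where inhibition never reached the appropriate level, the endpoint shown equals the highest concentration tested. Otherwise, values were interpolated linearly from a five-concentration, 48-hour dose response in 96-well plates. GI50 = concentration required for 50% inhibition of growth.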 The source made the active and inactive calls. Cut-off read from the data, not from the text of the source: active = GI50 up to about 1.1 µM and inactive = higher.

Legend:
Assay in all cases: NCI tumour cell line growth inhibition, 48 h
ACHN = system: ACHN
HOP-62 = system: HOP-62
HOP-92 = system: HOP-92
K562 = system: K562
LOX IMVI = system: LOX IMVI
M14 = system: M14
MOLT-4 = system: MOLT-4
NCI-H23 = system: NCI-H23
NCI-H460 = system: NCI-H460
OVCAR-8 = system: OVCAR-8
SK-OV-3 = system: SK-OV-3
SNB-75 = system: SNB-75
SW-620 = system: SW-620
TK-10 = system: TK-10
U-251 = system: U-251
UACC-257 = system: UACC-257

CN(C(=O)C12C3C4C5C3C1(C(=O)O)C5C42)C(C)(C)C (centres undefined)
GI50 (ACHN): > 100 µM (inactive) | GI50 (HOP-62): > 100 µM (inactive) | GI50 (HOP-92): > 100 µM (inactive) | GI50 (K562): 44.6 µM (inactive) | GI50 (LOX IMVI): 26.1 µM (inactive) | GI50 (M14): > 100 µM (inactive) | GI50 (MOLT-4): > 100 µM (inactive) | GI50 (NCI-H23): > 100 µM (inactive) | GI50 (NCI-H460): > 100 µM (inactive) | GI50 (OVCAR-8): > 100 µM (inactive) | GI50 (SK-OV-3): > 100 µM (inactive) | GI50 (SNB-75): > 100 µM (inactive) | GI50 (SW-620): 23.9 µM (inactive) | GI50 (TK-10): > 100 µM (inactive) | GI50 (U-251): > 100 µM (inactive) | GI50 (UACC-257): > 100 µM (inactive)

C[n+]1c2ccccc2c(CNCC(=O)O)c2ccccc21
GI50 (ACHN): 0.61 µM (active) | GI50 (HOP-62): 6.27 µM (inactive) | GI50 (HOP-92): 0.929 µM (active) | GI50 (K562): 0.504 µM (active) | GI50 (M14): 3.97 µM (inactive) | GI50 (MOLT-4): 0.223 µM (active) | GI50 (NCI-H23): 6.95 µM (inactive) | GI50 (NCI-H460): 3.76 µM (inactive) | GI50 (OVCAR-8): 2.75 µM (inactive) | GI50 (SK-OV-3): 4.74 µM (inactive) | GI50 (SNB-75): 8.41 µM (inactive) | GI50 (SW-620): 0.571 µM (active) | GI50 (TK-10): 0.708 µM (active) | GI50 (U-251): 3.62 µM (inactive) | GI50 (UACC-257): 10.9 µM (inactive)

Cc1ccc(S(=O)(=O)NC2(C=O)CCC(C(C)(C)C)CC2)cc1 (centres undefined)
GI50 (ACHN): 32.5 µM (inactive) | GI50 (HOP-62): > 100 µM (inactive) | GI50 (HOP-92): 30.7 µM (inactive) | GI50 (K562): 28.8 µM (inactive) | GI50 (M14): 71 µM (inactive) | GI50 (MOLT-4): 16.5 µM (inactive) | GI50 (NCI-H23): 31.2 µM (inactive) | GI50 (NCI-H460): 32.3 µM (inactive) | GI50 (OVCAR-8): 36.5 µM (inactive) | GI50 (SK-OV-3): > 100 µM (inactive) | GI50 (SNB-75): 45.2 µM (inactive) | GI50 (SW-620): 70.3 µM (inactive) | GI50 (TK-10): 33.8 µM (inactive) | GI50 (U-251): 34.3 µM (inactive) | GI50 (UACC-257): 34.9 µM (inactive)

N#CC1=C(c2ccccc2)OC2(N)OC(c3ccccc3)=C(C#N)C12C#N (centres undefined)
GI50 (ACHN): > 100 µM (inactive) | GI50 (HOP-62): > 100 µM (inactive) | GI50 (K562): > 100 µM (inactive) | GI50 (LOX IMVI): > 100 µM (inactive) | GI50 (M14): > 100 µM (inactive) | GI50 (MOLT-4): > 100 µM (inactive) | GI50 (NCI-H23): > 100 µM (inactive) | GI50 (NCI-H460): > 100 µM (inactive) | GI50 (OVCAR-8): 74.8 µM (inactive) | GI50 (SK-OV-3): > 100 µM (inactive) | GI50 (SNB-75): 43.6 µM (inactive) | GI50 (SW-620): > 100 µM (inactive) | GI50 (TK-10): > 100 µM (inactive) | GI50 (U-251): > 100 µM (inactive) | GI50 (UACC-257): > 100 µM (inactive)

C[Si](C)(c1ccccc1)C1CC(=O)CC(=O)C1
GI50 (ACHN): > 100 µM (inactive) | GI50 (HOP-62): > 100 µM (inactive) | GI50 (K562): > 100 µM (inactive) | GI50 (LOX IMVI): 20.8 µM (inactive) | GI50 (M14): > 100 µM (inactive) | GI50 (MOLT-4): > 100 µM (inactive) | GI50 (NCI-H23): > 100 µM (inactive) | GI50 (NCI-H460): > 100 µM (inactive) | GI50 (OVCAR-8): > 100 µM (inactive) | GI50 (SK-OV-3): > 100 µM (inactive) | GI50 (SNB-75): > 100 µM (inactive) | GI50 (SW-620): > 100 µM (inactive) | GI50 (TK-10): > 100 µM (inactive) | GI50 (U-251): > 100 µM (inactive) | GI50 (UACC-257): > 100 µM (inactive)

COc1nc2c(c(O)c(C)c(=O)n2OC2OCC(OC(C)=O)C(OC(C)=O)C2OC(C)=O)c(=O)n1C (centres undefined)
GI50 (ACHN): > 100 µM (inactive) | GI50 (HOP-62): > 100 µM (inactive) | GI50 (K562): > 100 µM (inactive) | GI50 (LOX IMVI): > 100 µM (inactive) | GI50 (M14): > 100 µM (inactive) | GI50 (MOLT-4): > 100 µM (inactive) | GI50 (NCI-H23): > 100 µM (inactive) | GI50 (NCI-H460): > 100 µM (inactive) | GI50 (OVCAR-8): > 100 µM (inactive) | GI50 (SNB-75): > 100 µM (inactive) | GI50 (SW-620): > 100 µM (inactive) | GI50 (TK-10): > 100 µM (inactive) | GI50 (U-251): > 100 µM (inactive)

O=C(O)/C(Cl)=C(\Cl)Nc1cccc(C(F)(F)F)c1
GI50 (ACHN): > 100 µM (inactive) | GI50 (HOP-62): > 100 µM (inactive) | GI50 (HOP-92): 9.2 µM (inactive) | GI50 (K562): > 100 µM (inactive) | GI50 (LOX IMVI): > 100 µM (inactive) | GI50 (M14): 18 µM (inactive) | GI50 (NCI-H23): > 100 µM (inactive) | GI50 (NCI-H460): > 100 µM (inactive) | GI50 (OVCAR-8): > 100 µM (inactive) | GI50 (SK-OV-3): > 100 µM (inactive) | GI50 (SNB-75): > 100 µM (inactive) | GI50 (SW-620): > 100 µM (inactive) | GI50 (TK-10): > 100 µM (inactive) | GI50 (U-251): > 100 µM (inactive)

COC(=O)C(C(=O)C(=O)Nc1ccc(C(F)(F)F)cc1[N+](=O)[O-])c1csc(-n2nc(-c3ccccc3)cc2-c2ccccc2)n1 (centres undefined)
GI50 (HOP-62): > 100 µM (inactive) | GI50 (K562): > 100 µM (inactive) | GI50 (LOX IMVI): > 100 µM (inactive) | GI50 (M14): > 100 µM (inactive) | GI50 (MOLT-4): > 100 µM (inactive) | GI50 (NCI-H23): > 100 µM (inactive) | GI50 (NCI-H460): > 100 µM (inactive) | GI50 (OVCAR-8): > 100 µM (inactive) | GI50 (SK-OV-3): > 100 µM (inactive) | GI50 (SNB-75): > 100 µM (inactive) | GI50 (SW-620): > 100 µM (inactive) | GI50 (TK-10): > 100 µM (inactive) | GI50 (U-251): > 100 µM (inactive) | GI50 (UACC-257): > 100 µM (inactive)

C[C@@H]1OC(=O)N2CCCC(=C3SCCCS3)C12 (some centres undefined)
GI50 (ACHN): 93.5 µM (inactive) | GI50 (HOP-92): 29.6 µM (inactive) | GI50 (K562): 43.6 µM (inactive) | GI50 (LOX IMVI): 94 µM (inactive) | GI50 (M14): 48.9 µM (inactive) | GI50 (MOLT-4): 33.3 µM (inactive) | GI50 (NCI-H23): 64 µM (inactive) | GI50 (NCI-H460): > 100 µM (inactive) | GI50 (OVCAR-8): 57.9 µM (inactive) | GI50 (SK-OV-3): > 100 µM (inactive) | GI50 (SNB-75): 51.2 µM (inactive) | GI50 (SW-620): > 100 µM (inactive) | GI50 (TK-10): > 100 µM (inactive) | GI50 (U-251): > 100 µM (inactive) | GI50 (UACC-257): 37.1 µM (inactive)

COC(=O)CCC(=O)CC(=O)C(=O)Nc1c(Cl)cc([N+](=O)[O-])cc1Cl
GI50 (ACHN): > 100 µM (inactive) | GI50 (HOP-62): > 100 µM (inactive) | GI50 (HOP-92): 38.7 µM (inactive) | GI50 (K562): > 100 µM (inactive) | GI50 (LOX IMVI): 52.1 µM (inactive) | GI50 (M14): > 100 µM (inactive) | GI50 (MOLT-4): > 100 µM (inactive) | GI50 (NCI-H23): > 100 µM (inactive) | GI50 (NCI-H460): > 100 µM (inactive) | GI50 (OVCAR-8): > 100 µM (inactive) | GI50 (SK-OV-3): > 100 µM (inactive) | GI50 (SNB-75): 47.2 µM (inactive) | GI50 (TK-10): > 100 µM (inactive) | GI50 (U-251): > 100 µM (inactive) | GI50 (UACC-257): > 100 µM (inactive)

Nc1nc2c(ncn2CCCC(c2ccccc2)P(=O)(O)O)c(=O)[nH]1 (centres undefined)
GI50 (ACHN): > 100 µM (inactive) | GI50 (HOP-62): > 100 µM (inactive) | GI50 (HOP-92): 91.8 µM (inactive) | GI50 (K562): > 100 µM (inactive) | GI50 (LOX IMVI): > 100 µM (inactive) | GI50 (M14): > 100 µM (inactive) | GI50 (MOLT-4): > 100 µM (inactive) | GI50 (NCI-H23): > 100 µM (inactive) | GI50 (NCI-H460): > 100 µM (inactive) | GI50 (OVCAR-8): > 100 µM (inactive) | GI50 (SK-OV-3): > 100 µM (inactive) | GI50 (SNB-75): > 100 µM (inactive) | GI50 (SW-620): > 100 µM (inactive) | GI50 (TK-10): > 100 µM (inactive) | GI50 (U-251): > 100 µM (inactive) | GI50 (UACC-257): > 100 µM (inactive)

O=C1C(N2C(=O)c3ccccc3C2=O)CN1C(COCc1ccccc1)c1ccc(OCc2ccccc2)cc1 (centres undefined)
GI50 (ACHN): > 100 µM (inactive) | GI50 (HOP-62): > 100 µM (inactive) | GI50 (HOP-92): > 100 µM (inactive) | GI50 (K562): > 100 µM (inactive) | GI50 (LOX IMVI): > 100 µM (inactive) | GI50 (M14): > 100 µM (inactive) | GI50 (MOLT-4): > 100 µM (inactive) | GI50 (NCI-H23): > 100 µM (inactive) | GI50 (NCI-H460): > 100 µM (inactive) | GI50 (OVCAR-8): > 100 µM (inactive) | GI50 (SK-OV-3): > 100 µM (inactive) | GI50 (SNB-75): > 100 µM (inactive) | GI50 (SW-620): > 100 µM (inactive) | GI50 (TK-10): > 100 µM (inactive) | GI50 (U-251): > 100 µM (inactive) | GI50 (UACC-257): > 100 µM (inactive)

COc1ccc(-c2nc3c(nc2-c2ccc(OC)cc2)N(C)S(=O)(=O)N=C3N)cc1
GI50 (ACHN): 19.1 µM (inactive) | GI50 (HOP-62): 33.6 µM (inactive) | GI50 (HOP-92): 13.6 µM (inactive) | GI50 (K562): 24.4 µM (inactive) | GI50 (LOX IMVI): 15.5 µM (inactive) | GI50 (M14): 34.4 µM (inactive) | GI50 (MOLT-4): 11.9 µM (inactive) | GI50 (NCI-H23): 28.7 µM (inactive) | GI50 (NCI-H460): 22.8 µM (inactive) | GI50 (OVCAR-8): 34.2 µM (inactive) | GI50 (SK-OV-3): 24.6 µM (inactive) | GI50 (SNB-75): 24 µM (inactive) | GI50 (SW-620): 28.8 µM (inactive) | GI50 (TK-10): 28.1 µM (inactive) | GI50 (U-251): 26.1 µM (inactive)
